# Literature values, collected in patent publication US6794359B2, “Vertebrate intestinal protein which absorbs cholesterol, its inhibitors and mehtod of identifying the same” (Aventis Pharma Deutschland GmbH, priority 2000, dated 2004).
# Like-named read-outs stand apart in the source and are kept apart here.
# Assays:
# [1] = test system: intestinal cholesterol absorption; settings: hamsters
# [2] = test system: intestinal cholesterol absorption; settings: dogs
# [3] = test system: intestinal cholesterol absorption; settings: humans
# [4] = test system: intestinal cholesterol absorption; settings: rabbits
# [5] = test system: intestinal cholesterol absorption; settings: rhesus monkeys
smiles,measurement,setting,value
O=C1[C@H](CC[C@H](O)c2ccc(F)cc2)[C@@H](c2ccc(O)cc2)N1c1ccc(F)cc1 [SCH 58235],increase of effect on direct comparison,[1]; direct comparison with SCH 48461,50 fold
COc1ccc([C@@H]2[C@@H](CCCc3ccccc3)C(=O)N2c2ccc(OC)cc2)cc1 [SCH 48461],inhibition of intestinal cholesterol absorption,[2],very efficiently inhibits
same,inhibition of intestinal cholesterol absorption,[3],very efficiently inhibits
same,inhibition of intestinal cholesterol absorption,[4],very efficiently inhibits
same,inhibition of intestinal cholesterol absorption,[5],very efficiently inhibits
same,inhibition of intestinal cholesterol absorption,[1],very efficiently inhibits
CC[C@H](CC[C@@H](C)[C@H]1CC[C@H]2[C@@H]3CC=C4C[C@@H](O)CC[C@]4(C)[C@H]3CC[C@]12C)C(C)C [β-sitosterol],inhibition of cholesterol absorption,[3]; background statement,an inhibition of cholesterol absorption
